Patent US10717720B2, “Modified compound of andrographolide” (Heilongjiang Zhenbaodao Pharmaceutical Co., Ltd., priority 2015, dated 2020)

Test system: LPS-induced IL-6 release level from THP-1 cells
Experiment: Test of IL-6 release from THP-1 cells (LPS-induced, IL-6 in supernatant detected by CBA)
Assay type: cell-based
Details: Homo sapiens, THP-1, 24 h, read-out: Inhibition rate @ 10 uM
Method: Test of IL-6 Release from THP-1 Cells
The inhibitory effect of the compound on LPS-induced IL-6 release level from THP-1 cells was evaluated by measuring the level of IL-6 in the cell culture supernatant.
4 ul was taken from each above solution and added to lml of culture solution to make 120 uM, 40 uM, 12 uM, 4 uM. 50 ul per well was taken and added to wells with cells to give final concentrations of 30 uM, 10 uM, 3 uM, and 1 uM, respectively. Dexamethasone was added as a positive drug into an individual cell well with a final concentration of 100 nM. • c) Cell stimulation
The LPS 1 mg/ml solution was diluted to 800 ng/ml with the culture solution and added to the cell culture wells at 50 ul/well. • d) Cell incubation and detection
The cell culture plate was placed in a 37° C. incubator, and the supernatant was collected after culturing for 24 hours. The level of IL-6 in the supernatant was detected by CBA.

SMILES | inhibition at 10 µM
C=C1CCC2[C@]3(C)CO[C@@H](C4CCCC4)O[C@@H]3CC[C@@]2(C)[C@@H]1CCNc1ccncc1F (stereo partly drawn) [Compound 345, N-(2-((3R,4aR,6aS,7R,10bR)-3-cyclopentyl-6a,10b-dimethyl-8-decahydromethylene-1H-naphtho[2,1-d][1,3]dioxin-7-yl)ethyl)-3-fluoropyridin-4-amine] | 30 to 60%

Same assay, conditions: Homo sapiens; inflammatory factor IL-6 detected by CBA; compound 10 uM; LPS-stimulated THP-1 cells, supernatant after 24 hours; read-out: Inhibition rate @ 10 uM

SMILES | inhibition at 10 µM
C=C1CCC2[C@]3(C)CO[C@@H](C4CCCC4)O[C@@H]3CC[C@@]2(C)[C@@H]1CCOc1ccccn1 (stereo partly drawn) [Compound 317, 2-(2-((3R,4aR,6aS,7R,10bR)-3-cyclopentyl-6a,10b-dimethyl-8-dihydromethylenedecahydro-1H-naphtho[2,1-d][1,3]dioxin-7-yl)ethoxy) pyridine] | > 60%
C=C1CCC2[C@]3(C)CO[C@@H](C4CCCC4)O[C@@H]3CC[C@@]2(C)[C@@H]1CCOc1ccnc(C)c1 (stereo partly drawn) [Compound 319, 4-(2-((3R,4aR,6aS,7R,10bR)-3-cyclopentyl-6a,10b-dimethyl-8-dihydromethylenedecahydro-1H-naphtho[2,1-d][1,3]dioxin-7-yl)ethoxy)-2-methylpyridine] | 30 to 60%
C=C1CCC2[C@]3(C)CO[C@@H](C4CCCC4)O[C@@H]3CC[C@@]2(C)[C@@H]1CCOc1ccnc(N)c1 (stereo partly drawn) [Compound 321, 4-(2-((3R,4aR,6aS,7R,10bR)-3-cyclopentyl-6a,10b-dimethyl-8-dihydromethylenedecahydro-1H-naphtho[2,1-d][1,3]dioxin-7-yl)ethoxy)-pyridin-2-amine] | < 30%
C=C1CCC2[C@]3(C)CO[C@@H](C4CCCC4)O[C@@H]3CC[C@@]2(C)[C@@H]1CCOc1ccncc1N (some centres unmarked) [Compound 339] | < 30%
C=C1CCC2[C@]3(C)CO[C@@H](C4CCCC4)O[C@@H]3CC[C@@]2(C)[C@@H]1CCOc1ccncc1F (stereo partly drawn) [Compound 344, 4-(2-((3R,4aR,6aS,7R,10bR)-3-cyclopentyl-6a,10b-dimethyl-8-dihydromethylenedecahydro-1H-naphtho[2,1-d][1,3]dioxin-7-yl)ethoxy)-3-fluoropyridine] | > 60%
C=C1CCC2[C@]3(C)CO[C@@H](C4CCCC4)O[C@@H]3CC[C@@]2(C)[C@@H]1CCOc1ccncc1C#N (stereo partly drawn) [Compound 349, 4-(2-((3R,4aR,6aS,7R,10bR)-3-cyclopentyl-6a,10b-dimethyl-8-dihydromethylenedecahydro-1H-naphtho[2,1-d][1,3]dioxin-7-yl)ethoxy)cyanopyridine] | > 60%
C=C1CCC2[C@]3(C)CO[C@@H](C4CCCC4)O[C@@H]3CC[C@@]2(C)[C@@H]1CCOCc1ccncc1 (stereo partly drawn) [Compound 351, 4-((2-((3R,4aR,6aS,7R,10bR)-3-cyclopentyl-6a,10b-dimethyl-8-dihydromethylenedecahydro-1H-naphtho[2,1-d][1,3]dioxin-7-yl)ethoxy)methyl)pyridine] | > 60%
C=C1CCC2[C@]3(C)CO[C@@H](C4CCCC4)O[C@@H]3CC[C@@]2(C)[C@@H]1CCN1CC(CO)C1 (some centres unmarked) [Compound 355] | < 30%
C=C1CCC2[C@]3(C)CO[C@@H](C4CCCC4)O[C@@H]3CC[C@@]2(C)[C@@H]1CCOc1ccn(C)c(=O)c1 (stereo partly drawn) [Compound 357, 4-(2-((3R,4aR,6aS,7R,10bR)-3-cyclopentyl-6a,10b-dimethyl-8-dihydromethylenedecahydro-1H-naphtho[2,1-d][1,3]dioxin-7-yl)ethoxy)-1-methylpyridin-2(1H)-one] | > 60%
C=C1CCC2[C@]3(C)CO[C@@H](C4CCCC4)O[C@@H]3CC[C@@]2(C)[C@@H]1CCOC1CCN(C)CC1 (stereo partly drawn) [Compound 366, 4-(2-((3R,4aR,6aS,7R,10bR)-3-cyclopentyl-6a,10b-dimethyl-8-dihydromethylenedecahydro-1H-naphtho[2,1-d][1,3]dioxin-7-yl)ethoxy)-1-methylpiperidine] | > 60%
